Experimental data: PubChem BioAssay AID330 (DTP/NCI, 2004)
“And” between values parts separate entries of the source, which are not always exact repeats. Equal entries are not always repeated. Toxic doses and inconclusive results are not listed.

System: P388 leukemia ip, CD2F1 mice, survival T/C
Assay: NCI In Vivo Anticancer Drug Screen. Data for tumor model P388 Leukemia (intraperitoneal) in CD2F1 (CDF1) mice
Settings: endpoint: median survival time, higher = longer survival
Description: The antitumor activity of compounds was measured in mice bearing transplantable tumors. Survival or tumor size were measured and the results are expressed as the measurement made in the treated group (T) divided by the measurement made in the vehicle treated control group (C). The tumor model used in this assay is P388 Leukemia (intraperitoneal) in CD2F1 (CDF1) mice

[1] = dose: 50.0 mg/kg/injection, schedule: Q01DX009 (ip), vehicle: Klucel (hydroxypropylcellulose) (HPC)
[2] = dose: 100.0 mg/kg/injection, schedule: Q01DX009 (ip), vehicle: Klucel (hydroxypropylcellulose) (HPC)
[3] = dose: 25.0 mg/kg/injection, schedule: Q01DX009 (ip), vehicle: saline with Tween-80
[4] = dose: 50.0 mg/kg/injection, schedule: Q01DX009 (ip), vehicle: saline with Tween-80
[5] = dose: 100.0 mg/kg/injection, schedule: Q01DX009 (ip), vehicle: saline with Tween-80
[6] = dose: 200.0 mg/kg/injection, schedule: Q01DX009 (ip), vehicle: saline with Tween-80
[7] = dose: 400.0 mg/kg/injection, schedule: Q01DX009 (ip), vehicle: saline with Tween-80
[8] = dose: 60.0 mg/kg/injection, schedule: Q01DX005 (ip), vehicle: saline with Tween-80
[9] = dose: 120.0 mg/kg/injection, schedule: Q01DX005 (ip), vehicle: saline with Tween-80
[10] = dose: 240.0 mg/kg/injection, schedule: Q01DX005 (ip), vehicle: saline with Tween-80
[11] = dose: 50.0 mg/kg/injection, schedule: Q01DX005 (ip), vehicle: saline with Tween-80
[12] = dose: 100.0 mg/kg/injection, schedule: Q01DX005 (ip), vehicle: saline with Tween-80
[13] = dose: 200.0 mg/kg/injection, schedule: Q01DX009 (ip), vehicle: Klucel (hydroxypropylcellulose) (HPC)
[14] = dose: 50.0 mg/kg/injection, schedule: Q01DX005 (ip), vehicle: Klucel (hydroxypropylcellulose) (HPC)
[15] = dose: 100.0 mg/kg/injection, schedule: Q01DX005 (ip), vehicle: Klucel (hydroxypropylcellulose) (HPC)
[16] = dose: 200.0 mg/kg/injection, schedule: Q01DX005 (ip), vehicle: Klucel (hydroxypropylcellulose) (HPC)

Cc1ccc(NC(=O)NCc2ccncc2)cc1NC(=O)NCc1ccncc1
T/C [1]: 112 % of control | T/C [2]: 110 % of control

O=C1CCCN1.O=C1CCCN1.[Br][Co][Br]
T/C [3]: 104 % of control | T/C [4]: 122 % of control

C1O[C@@H]1[C@H]1CO1
T/C (dose: 6.25 mg/kg/injection, schedule: Q01DX009 (ip), vehicle: saline): 104 % of control | T/C (dose: 6.25 mg/kg/injection, schedule: Q04DX003 (ip), vehicle: saline): 120 % of control | T/C (dose: 12.5 mg/kg/injection, schedule: Q01DX009 (ip), vehicle: saline): 109 % of control | T/C (dose: 12.5 mg/kg/injection, schedule: Q04DX003 (ip), vehicle: saline): 120 % of control | T/C (dose: 25.0 mg/kg/injection, schedule: Q01DX009 (ip), vehicle: saline): 157 % of control | T/C (dose: 25.0 mg/kg/injection, schedule: Q04DX003 (ip), vehicle: saline): 100 % of control

CC(C)Cn1c(Cl)c(C(=O)O)c2ccccc21
T/C (dose: 100.0 mg/kg/injection, schedule: Q04DX002 (ip), vehicle: Klucel (hydroxypropylcellulose) (HPC)): 92 % of control | T/C (dose: 200.0 mg/kg/injection, schedule: Q04DX002 (ip), vehicle: Klucel (hydroxypropylcellulose) (HPC)): 88 % of control

COC(=O)Nc1ccc(C(=O)c2ccccc2)cc1
T/C (dose: 50.0 mg/kg/injection, schedule: Q01DX009 (ip), vehicle: saline): 98 % of control | T/C (dose: 100.0 mg/kg/injection, schedule: Q01DX009 (ip), vehicle: saline): 99 % of control | T/C (dose: 200.0 mg/kg/injection, schedule: Q01DX009 (ip), vehicle: saline): 93 % of control

CC(=O)OC1CCC2C3CCC4=C/C(=N/NC(=S)Nc5ccccc5)CCC4(C)C3CCC12C (stereo not given)
T/C (dose: 100.0 mg/kg/injection, schedule: Q01DX001 (ip), vehicle: saline): 101 % of control | T/C (dose: 200.0 mg/kg/injection, schedule: Q01DX001 (ip), vehicle: saline): 101 % of control | T/C (dose: 400.0 mg/kg/injection, schedule: Q01DX001 (ip), vehicle: saline): 100 % of control

O=C1C=C2C=CC(O)C(O)C2O1 (stereo not given)
T/C (dose: 2.5 mg/kg/injection, schedule: Q01DX009 (ip), vehicle: Klucel (hydroxypropylcellulose) (HPC)): 102 % of control | T/C (dose: 5.0 mg/kg/injection, schedule: Q01DX009 (ip), vehicle: Klucel (hydroxypropylcellulose) (HPC)): 98 % of control | T/C (dose: 10.0 mg/kg/injection, schedule: Q01DX009 (ip), vehicle: Klucel (hydroxypropylcellulose) (HPC)): 100 % of control | T/C (dose: 20.0 mg/kg/injection, schedule: Q01DX009 (ip), vehicle: Klucel (hydroxypropylcellulose) (HPC)): 94 % of control

CCN(CC)CC(=O)c1ccc(O)c(O)c1
T/C [4]: 91 % of control | T/C [5]: 98 % of control and 106 % of control | T/C [6]: 112 % of control and 123 % of control | T/C [7]: 116 % of control and 117 % of control

COC1(OC)C2(Cl)CC(C(=O)O)C1(Cl)C(Cl)=C2Cl (stereo not given)
T/C [8]: 102 % of control | T/C [9]: 99 % of control | T/C [10]: 104 % of control

C[N+](C)(C)c1ccc(/C=C/[N+](=O)[O-])cc1
T/C (dose: 12.5 mg/kg/injection, schedule: Q01DX009 (ip), vehicle: saline with Tween-80): 95 % of control | T/C [3]: 102 % of control

CCCn1c(C)nc2c([N+](=O)[O-])cc(C(F)(F)F)cc21
T/C [8]: 98 % of control | T/C [9]: 97 % of control | T/C [10]: 99 % of control

Cc1c(C(N)=O)c(NC=O)n(-c2ccccc2)c1C
T/C [8]: 100 % of control | T/C [9]: 99 % of control | T/C [10]: 93 % of control

COc1ccc(-c2cc(=O)c3ccc4c(O)cccc4c3o2)cc1
T/C [4]: 94 % of control | T/C [5]: 100 % of control | T/C [6]: 97 % of control | T/C [7]: 90 % of control

COc1cc(C2c3cc4c(cc3[C@@H](OC3OC(COC(C)=O)C(OC(C)=O)C(OC(C)=O)C3OC(C)=O)[C@H]3COC(=O)[C@H]23)OCO4)cc(OC)c1OC (stereo not given in full)
T/C (dose: 4.0 mg/kg/injection, schedule: Q01DX005 (ip), vehicle: saline): 107 % of control | T/C (dose: 8.0 mg/kg/injection, schedule: Q01DX005 (ip), vehicle: saline): 113 % of control | T/C (dose: 16.0 mg/kg/injection, schedule: Q01DX005 (ip), vehicle: saline): 105 % of control | T/C (dose: 32.0 mg/kg/injection, schedule: Q01DX005 (ip), vehicle: saline): 98 % of control and 105 % of control | T/C (dose: 64.0 mg/kg/injection, schedule: Q01DX005 (ip), vehicle: saline): 100 % of control | T/C (dose: 128.0 mg/kg/injection, schedule: Q01DX005 (ip), vehicle: saline): 100 % of control

NS(=O)(=O)c1ccc(N=c2c3ccccc3n(Cc3ccccc3)c3ccccc23)cc1
T/C [11]: 88 % of control | T/C [12]: 94 % of control

O=C(O)c1cnc2cc(C(F)(F)F)ccc2c1Nc1ccc2c(c1)OCO2
T/C (dose: 60.0 mg/kg/injection, schedule: Q01DX005 (ip), vehicle: Klucel + Tween-80): 103 % of control | T/C (dose: 120.0 mg/kg/injection, schedule: Q01DX005 (ip), vehicle: Klucel + Tween-80): 98 % of control | T/C (dose: 240.0 mg/kg/injection, schedule: Q01DX005 (ip), vehicle: Klucel + Tween-80): 97 % of control

O=C(Cc1ccccc1)OCC1=CCN2CC[C@@H](O)[C@@H]12
T/C (dose: 15.0 mg/kg/injection, schedule: Q01DX009 (ip), vehicle: saline + alcohol): 97 % of control | T/C (dose: 30.0 mg/kg/injection, schedule: Q01DX009 (ip), vehicle: saline + alcohol): 99 % of control | T/C (dose: 60.0 mg/kg/injection, schedule: Q01DX009 (ip), vehicle: saline + alcohol): 97 % of control | T/C (dose: 120.0 mg/kg/injection, schedule: Q01DX009 (ip), vehicle: saline + alcohol): 109 % of control | T/C (dose: 240.0 mg/kg/injection, schedule: Q01DX009 (ip), vehicle: saline + alcohol): 105 % of control | T/C (dose: 480.0 mg/kg/injection, schedule: Q01DX009 (ip), vehicle: saline + alcohol): 116 % of control

O=C1c2ccccc2C(=O)N1CC[P+](C1CCCCC1)(C1CCCCC1)C1CCCCC1
T/C (dose: 0.78 mg/kg/injection, schedule: Q01DX009 (ip), vehicle: saline with Tween-80): 110 % of control | T/C (dose: 1.56 mg/kg/injection, schedule: Q01DX009 (ip), vehicle: saline with Tween-80): 112 % of control | T/C (dose: 3.13 mg/kg/injection, schedule: Q01DX009 (ip), vehicle: water): 97 % of control | T/C (dose: 6.25 mg/kg/injection, schedule: Q01DX009 (ip), vehicle: saline with Tween-80): 116 % of control | T/C (dose: 6.25 mg/kg/injection, schedule: Q01DX009 (ip), vehicle: water): 118 % of control | T/C (dose: 12.5 mg/kg/injection, schedule: Q01DX009 (ip), vehicle: water): 118 % of control | T/C (dose: 25.0 mg/kg/injection, schedule: Q01DX009 (ip), vehicle: water): 118 % of control | T/C (dose: 50.0 mg/kg/injection, schedule: Q01DX009 (ip), vehicle: water): 86 % of control

Cc1[nH]c2ccc(N(C)C)cc2c(=O)c1CN1CCCCC1
T/C [1]: 106 % of control | T/C [2]: 100 % of control | T/C [13]: 108 % of control

O=C(CC(=O)N1N=C(N(c2ccccc2)c2ccccc2)CC1c1ccccc1)Nc1ccccc1Cl (stereo not given)
T/C [11]: 99 % of control | T/C [12]: 99 % of control | T/C [10]: 90 % of control

CCN1C2OC3CCC2(C)C2C(OC)C4(O)C1C32C1CC2C(OC)CC4(O)C1C2O (stereo not given)
T/C (dose: 0.94 mg/kg/injection, schedule: Q01DX005 (ip), vehicle: saline + alcohol): 106 % of control | T/C (dose: 1.88 mg/kg/injection, schedule: Q01DX005 (ip), vehicle: saline + alcohol): 102 % of control | T/C (dose: 3.75 mg/kg/injection, schedule: Q01DX005 (ip), vehicle: saline + alcohol): 108 % of control | T/C (dose: 7.5 mg/kg/injection, schedule: Q01DX005 (ip), vehicle: saline + alcohol): 102 % of control

CN(C)C(=O)N1CCc2ccc([N+](=O)[O-])cc21
T/C [1]: 104 % of control | T/C [2]: 100 % of control | T/C [13]: 98 % of control

CCOC(=O)C1=C(C)NC(=O)NC1c1cccs1 (stereo not given)
T/C [14]: 98 % of control | T/C [15]: 96 % of control | T/C [16]: 97 % of control

O=C(CSC(c1ccccc1)(c1ccccc1)c1ccccc1)c1ccc([N+](=O)[O-])cc1
T/C [14]: 100 % of control | T/C [15]: 105 % of control | T/C [16]: 95 % of control
